Laboratory results reported in patent publication US20250188043A1 (ReproNovo SA, priority 2023, published 2025).
Values belong to the molecule of their own block, whether it stands above or below them.

Tests used:
[1] = Pharmacokinetics in naïve female mice; conditions: mouse, in vivo, NMP-PEG300 10/90
[2] = Metabolic stability in rat liver microsomes; format: in vitro ADME
[3] = biological target: T1, breast cancer resistance protein (Homo sapiens, UniProt Q9UNQ0); assay: Breast cancer resistance protein inhibition; format: in vitro ADME; conditions: at concentrations above 200 μM
T1 sequence (Q9UNQ0 1-655): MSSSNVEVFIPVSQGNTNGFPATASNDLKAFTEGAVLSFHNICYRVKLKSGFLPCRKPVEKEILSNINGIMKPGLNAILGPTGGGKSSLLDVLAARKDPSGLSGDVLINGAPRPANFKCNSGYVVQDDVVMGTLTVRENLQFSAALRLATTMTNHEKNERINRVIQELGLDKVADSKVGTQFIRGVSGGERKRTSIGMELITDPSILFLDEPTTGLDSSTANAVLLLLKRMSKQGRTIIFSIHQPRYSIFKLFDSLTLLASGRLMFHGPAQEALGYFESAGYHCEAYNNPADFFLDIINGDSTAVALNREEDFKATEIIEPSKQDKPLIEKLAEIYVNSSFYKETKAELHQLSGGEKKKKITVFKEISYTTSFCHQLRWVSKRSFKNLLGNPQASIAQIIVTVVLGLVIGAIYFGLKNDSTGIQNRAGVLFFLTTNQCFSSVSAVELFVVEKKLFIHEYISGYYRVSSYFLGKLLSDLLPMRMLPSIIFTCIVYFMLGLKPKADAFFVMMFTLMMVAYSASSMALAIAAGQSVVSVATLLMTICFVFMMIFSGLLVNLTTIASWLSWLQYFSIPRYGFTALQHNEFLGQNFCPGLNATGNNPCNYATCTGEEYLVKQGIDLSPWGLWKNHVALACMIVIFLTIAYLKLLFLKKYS

[4] = Pharmacokinetics in rats; format: in vivo; conditions: for AUC(0-inf) / half-life / AUC(0-t) / Cmax: 1 mg/kg; for AUC(0-t): AUC 0-24^1/48^2 h
[5] = biological target: T2, CYP2D6 (Homo sapiens, UniProt P10635); assay: CYP inhibition, pooled human liver microsomes, probe substrates; format: in vitro ADME; conditions: up to 100 μM
T2 construct: assessed by pooled human liver microsomes using enzyme selective probe substrates; from tissue; host or cells: pooled human liver microsomes
T2 sequence (P10635 whole entry): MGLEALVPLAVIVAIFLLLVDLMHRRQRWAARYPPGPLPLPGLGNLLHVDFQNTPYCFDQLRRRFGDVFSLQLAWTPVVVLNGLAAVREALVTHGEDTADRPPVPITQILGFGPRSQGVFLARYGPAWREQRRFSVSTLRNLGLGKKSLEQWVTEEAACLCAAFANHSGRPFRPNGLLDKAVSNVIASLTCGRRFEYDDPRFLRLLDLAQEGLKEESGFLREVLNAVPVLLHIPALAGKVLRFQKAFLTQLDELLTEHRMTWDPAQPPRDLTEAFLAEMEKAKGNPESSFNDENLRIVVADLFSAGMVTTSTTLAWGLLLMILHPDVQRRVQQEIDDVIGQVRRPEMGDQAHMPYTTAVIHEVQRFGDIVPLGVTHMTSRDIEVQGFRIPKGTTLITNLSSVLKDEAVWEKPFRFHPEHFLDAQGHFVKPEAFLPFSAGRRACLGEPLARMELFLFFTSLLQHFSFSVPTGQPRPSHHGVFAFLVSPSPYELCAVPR

[6] = Dissolution experiments with capsules; format: physicochemical; conditions: drug substance particle sizes up to D90 ≤35 μm
[7] = tested on: obese and overweight men with hypogonadism and low total motile sperm count; assay: Randomized, double-blind phase IIb trial of oral leflutrozole; format: in vivo, human; conditions: for Semen Volume, change from baseline, LS mean difference (95% CI) vs. placebo / Sperm Morphology, change from baseline, LS mean difference (95% CI) vs. placebo / Sperm Motility, change from baseline, LS mean difference (95% CI) vs. placebo / Spermatozoa, change from baseline, LS mean difference (95% CI) vs. placebo / Total Motile Sperm Count, change from baseline, LS mean difference (95% CI) vs. placebo: Week 20; for Estradiol, Initial: baseline; for population with testosterone normalization: day 8 of treatment (2nd visit); for Estradiol, Change: to week 24; for FSH increase / estradiol decrease / mean LH increase: week 24
Description: The primary endpoint of the study is a change in testosterone levels after 24 weeks of treatment. […] Normalization of testosterone, for the purposes of this trial, was considered to be between 300 and 1000 ng/dL (10.4 and 35 nmol/L, respectively). Levels above 1000 ng/dL are furthermore considered abnormal.

[8] = biological target: T3, CYP2E1 (Homo sapiens, UniProt P05181); assay: CYP inhibition, pooled human liver microsomes, probe substrates; format: in vitro ADME; conditions: up to 100 μM
T3 construct: assessed by pooled human liver microsomes using enzyme selective probe substrates; from tissue; host or cells: pooled human liver microsomes
T3 sequence (P05181 whole entry): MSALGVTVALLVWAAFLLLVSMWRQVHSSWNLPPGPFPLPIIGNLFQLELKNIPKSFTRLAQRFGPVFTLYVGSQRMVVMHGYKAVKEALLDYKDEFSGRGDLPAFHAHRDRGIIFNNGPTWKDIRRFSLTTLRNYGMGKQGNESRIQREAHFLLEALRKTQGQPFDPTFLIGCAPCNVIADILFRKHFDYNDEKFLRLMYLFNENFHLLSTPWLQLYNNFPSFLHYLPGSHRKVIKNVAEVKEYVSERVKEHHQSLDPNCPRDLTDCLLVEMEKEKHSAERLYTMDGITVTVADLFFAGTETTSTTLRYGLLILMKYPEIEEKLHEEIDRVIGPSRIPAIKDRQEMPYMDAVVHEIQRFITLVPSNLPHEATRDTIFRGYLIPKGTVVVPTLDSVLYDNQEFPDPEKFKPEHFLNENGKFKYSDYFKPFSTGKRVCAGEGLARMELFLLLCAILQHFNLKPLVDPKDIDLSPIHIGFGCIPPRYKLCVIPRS

[9] = Chemical stability stress test: bulk solid and suspensions in buffer; format: physicochemical; conditions: for Leflutrozole Peak Area, After: 1 week; for degradation: all suspensions tested
Description: The stress test conditions were bulk crystalline solid at room temperature (RT, about 25° C.) and 80° C. for one week or storage in buffer solutions of different pH (1, 4, and 7.4) at RT or at 80° C. for one week. Additional experiments were performed at 50° C. if degradation by more than 5% was observed during the analogous 80° C. experiment.

[10] = Effect of oxygen (high oxygen content air or N2); format: physicochemical; conditions: high oxygen content air or inert atmosphere (N2)
Excerpt: Oxidative degradation of leflutrozole is the primary pathway by which leflutrozole degrades outside of the synthesis process. Defluorination and oxidation that coincides with removal of the […] moiety yields the compound of Formula IV.

[11] = rat, in vivo, iv, 1 mg/kg i.v., PEG200-0.9% Saline-solution 40/60
[12] = rat, in vivo, po, 1 mg/kg p.o., PEG200-water-solution 40/60
[13] = rat, in vivo, po, 1 mg/kg p.o., Suspension 0.5% HPC

AUC(0-inf) ([1]; iv, 1 mg/kg i.v.): 34 µM·h | AUC(0-t) ([1]; iv, 1 mg/kg i.v.): 21 µM·h | clearance ([1]; iv, 1 mg/kg i.v.): 1.5 mL/min | half-life ([1]; iv, 1 mg/kg i.v.): 13 h | AUC(0-inf) ([1]; po, 2.5 mg/kg p.o.): 70.2 µM·h | AUC(0-t) ([1]; po, 2.5 mg/kg p.o.): 61.7 µM·h | Cmax ([1]; po, 2.5 mg/kg p.o.): 2930 nM | half-life ([1]; po, 2.5 mg/kg p.o.): 13 h | CLint scaled [2]: < 4.6 mL/min/kg | half-life [2]: > 5 h | inhibition of breast cancer resistance protein [3]: not determined to be an inhibitor | BAV 0-inf ([4]; 1 mg/kg p.o., Suspension 0.5% HPC): ≥100% | clearance [4, 11]: 0.383 mL/min | AUC(0-inf) [4, 11]: 123 µM·h | half-life ([4]; rat, in vivo, iv, 1 mg/kg i.v., PEG200-0.9% Saline-solution 40/60, read-out: T1/2 (converted)): 33.1 h | AUC(0-t) [4, 11]: 79.4 µM·h | AUC(0-inf) [4, 12]: 143 µM·h | Cmax [4, 12]: 1750 nM | half-life ([4]; rat, in vivo, po, 1 mg/kg p.o., PEG200-water-solution 40/60, read-out: T1/2 (converted)): 49.7 h | AUC(0-inf) [4, 13]: 245 µM·h | Cmax [4, 13]: 1810 nM | half-life ([4]; rat, in vivo, po, 1 mg/kg p.o., Suspension 0.5% HPC, read-out: T1/2 (converted)): 101 h | AUC(0-t) [4, 12]: 70.2 µM·h | AUC(0-t) [4, 13]: 163 µM·h | half-life ([4]; rat, in vivo, po, read-out: half-life (converted)): 101 h | IC50 [5]: > 50 µM | influence of particle size on dissolution of capsules [6]: no relevant influence on dissolution | IC50 [8]: > 50 µM
Structure (SMILES): N#Cc1ccc(C(F)(c2ccc(C#N)cc2)n2cncn2)cc1 [leflutrozole, 4-[(4-cyanophenyl)-fluoro-(1,2,4-triazol-1-yl)methyl]benzonitrile]
Estradiol, Week 24 Measurement ([7]; 0.1 mg): 12.94 pg/mL | subjects with normalized testosterone (300-1000 ng/dL), number ([7]; 0.1 mg weekly, after 24 weeks): 59 subjects | Semen Volume, change from baseline, LS mean difference (95% CI) vs. placebo ([7]; 0.1 mg): 0.7 mL | Sperm Morphology, change from baseline, LS mean difference (95% CI) vs. placebo ([7]; 0.1 mg): −1.9 % | Sperm Motility, change from baseline, LS mean difference (95% CI) vs. placebo ([7]; 0.1 mg): 2.7 % | Spermatozoa, change from baseline, LS mean difference (95% CI) vs. placebo ([7]; 0.1 mg): 130.4 (−65.3, 10^6/ejaculate | Total Motile Sperm Count, change from baseline, LS mean difference (95% CI) vs. placebo ([7]; 0.1 mg): 86.3 (−24.5, 10^6/ejaculate | Estradiol, Initial ([7]; 0.1 mg): 24.69 pg/mL | population with testosterone normalization ([7]; 0.1 mg): 80.6% | Estradiol, Change ([7]; 0.1 mg): -11.75 pg/mL | FSH increase ([7]; 0.1 mg): 4.836 mlU/mL | estradiol decrease ([7]; 0.1 mg): 11.8 pg/mL | mean LH increase ([7]; 0.1 mg): 2.108 mlU/mL | Estradiol, Week 24 Measurement ([7]; 0.3 mg): 11.84 pg/mL | subjects with normalized testosterone (300-1000 ng/dL), number ([7]; 0.3 mg weekly, after 24 weeks): 62 subjects | Semen Volume, change from baseline, LS mean difference (95% CI) vs. placebo ([7]; 0.3 mg): 0.8 mL | Sperm Morphology, change from baseline, LS mean difference (95% CI) vs. placebo ([7]; 0.3 mg): −2.6 % | Sperm Motility, change from baseline, LS mean difference (95% CI) vs. placebo ([7]; 0.3 mg): −0.1 % | Spermatozoa, change from baseline, LS mean difference (95% CI) vs. placebo ([7]; 0.3 mg): 90.2 (−126.5, 10^6/ejaculate | Total Motile Sperm Count, change from baseline, LS mean difference (95% CI) vs. placebo ([7]; 0.3 mg): 54.2 (−77.3, 10^6/ejaculate | Estradiol, Initial ([7]; 0.3 mg): 24.80 pg/mL | population with testosterone normalization ([7]; 0.3 mg): 89.1% | Estradiol, Change ([7]; 0.3 mg): -12.96 pg/mL | FSH increase ([7]; 0.3 mg): 6.183 mlU/mL | estradiol decrease ([7]; 0.3 mg): 13 pg/mL | mean LH increase ([7]; 0.3 mg): 3.560 mlU/mL | Estradiol, Week 24 Measurement ([7]; 1.0 mg): 8.63 pg/mL | subjects with normalized testosterone (300-1000 ng/dL), number ([7]; 1.0 mg weekly, after 24 weeks): 63 subjects | subjects with normalized testosterone (300-1000 ng/dL), percent ([7]; 1.0 mg weekly, after 24 weeks): 94.0% | Semen Volume, change from baseline, LS mean difference (95% CI) vs. placebo ([7]; 1.0 mg): 1.4 mL | Sperm Morphology, change from baseline, LS mean difference (95% CI) vs. placebo ([7]; 1.0 mg): −4.1 % | Sperm Motility, change from baseline, LS mean difference (95% CI) vs. placebo ([7]; 1.0 mg): −1.2 % | Spermatozoa, change from baseline, LS mean difference (95% CI) vs. placebo ([7]; 1.0 mg): 270.1 (65.0, 10^6/ejaculate | Total Motile Sperm Count, change from baseline, LS mean difference (95% CI) vs. placebo ([7]; 1.0 mg): 127.7 (12.6, 10^6/ejaculate | Estradiol, Initial ([7]; 1.0 mg): 23.47 pg/mL | population with testosterone normalization ([7]; 1.0 mg): 89.1% | Estradiol, Change ([7]; 1.0 mg): -14.84 pg/mL | FSH increase ([7]; 1.0 mg): 8.282 mlU/mL | estradiol decrease ([7]; 1.0 mg): 14.8 pg/mL | mean LH increase ([7]; 1.0 mg): 5.209 mlU/mL | primary endpoint (≥75% of subjects with normalization of testosterone by week 24) ([7]; all leflutrozole treatment groups): met in all leflutrozole treatment groups | changes from baseline vs placebo in triglycerides, HbA1c, glucose and C-reactive protein ([7]; during the study, p>0.05): No statistically significant changes | insulin and HOMA-IR compared with placebo ([7]; leflutrozole treatment groups, none met statistical significance): Consistent decreases | semen volume improvement, LS mean difference (95% CI) ([7]; stated as across all active treatment arms): 1.4 (0.4, 2.3) mL | sperm count compared to placebo (in words) ([7]; weeks 12 and 20, all three treatment arms): increases were observed across all three treatment arms compared to placebo

Leflutrozole Peak Area, After ([9]; Bulk Solid, RT): 99.6% peak area | Leflutrozole Peak Area, After ([9]; Bulk solid, 80° C., listed as Form A of leflutrozole): 99.7 % peak area | Leflutrozole Peak Area, After ([9]; Bulk solid, 80° C., listed as crystalline Form A leflutrozole): 99.7% peak area | Leflutrozole Peak Area, After ([9]; Suspension in buffer, pH 1, 50° C.): 79.8% peak area | Leflutrozole Peak Area, After ([9]; Suspension in buffer, pH 1, 80° C.): 18.5% peak area | Leflutrozole Peak Area, After ([9]; Suspension in buffer, pH 4, 50° C.): 94.3% peak area | Leflutrozole Peak Area, After ([9]; Suspension in buffer, pH 4, 80° C.): 0.6% peak area | Leflutrozole Peak Area, After ([9]; Suspension in buffer, pH 7.4, 50° C.): 95.5% peak area | Leflutrozole Peak Area, After ([9]; Suspension in buffer, pH 7.4, 80° C.): 1.1% peak area | degradation ([9]; 1 week at 50° C.): > 4% | degradation ([9]; 80° C. for 1 week, irrespective of buffer pH): > 80% | Leflutrozole Peak Area, Before ([9]; before stress test): 99.7% peak area | major decomposition product ([9]; sample stored at pH 7.4 and 80° C., LC-MS): compound of Formula (IV)
Structure (SMILES): N#Cc1ccc(C(F)(c2ccc(C#N)cc2)n2cncn2)cc1 [Form A leflutrozole, 4-[(4-cyanophenyl)-fluoro-(1,2,4-triazol-1-yl)methyl]benzonitrile]
degradation on exposure to air (in words) [10]: does not degrade readily when exposed to air
